Entries after “also recorded” stand apart in the source; their conditions may differ. Where two headings read alike, the source gives them in different places.

The values that follow come from article PMC5735564 (Journal for Immunotherapy of Cancer, 2017).

The subject of one data set is CT26 tumors. Nature of the data set: CT26 syngeneic tumor model.
For data set [1], the system named is LLC tumors. Put plainly: LLC syngeneic tumor model. The format is in vivo, mouse.
For another data set, the system named is 4T1 tumors. Nature of the data set: 4T1 orthotopic tumor model. The format is in vivo, mouse.
Data set [2] has as its system granulocytes from a head and neck cancer patient / healthy donor T cells. Nature of the data set: T cell proliferation in granulocyte-conditioned media (head and neck cancer patient). It counts as cell-based, human. The method, then: (§1) Freshly isolated granulocytes were incubated for 48 h at 37 °C, during which time they spontaneously activate as determined by increased surface expression of CD66b and scatter properties. T cells isolated from the same healthy donor using a pan-T cell isolation kit (Stemcell Technologies) were loaded with CFSE and plated with immobilized anti-CD3 and soluble anti-CD28 in the presence of the aged granulocytes. The cells were co-cultured at several ratios of granulocytes to T cells as indicated in the figure or at a fixed ratio of 4 T cells to 1 granulocyte. Co-cultures were incubated for 3–4 days, at which time the medium was analyzed for L-arginine and L-ornithine by mass spectrometry and T cell proliferation was determined by flow cytometry. Granulocytic MDSC (G-MDSC) or granulocytes from cancer patients were isolated from whole blood purchased from Conversant Biologics. G-MDSCs were purified from the PBMC layer of a Ficoll gradient by positive selection for CD66b^+ cells. Granulocytes were purified from the RBC layer of a Ficoll gradient using Hetasep (Stemcell Technologies). Granulocytes and G-MDSCs were characterized by flow cytometry for CD66b expression. Freshly isolated G-MDSC or granulocytes were incubated in co-culture medium containing 100 μM L-arginine for 48 h, at which time the cells were removed and the G-MDSC- or granulocyte-conditioned media were used for incubating healthy donor CFSE-loaded T cells on immobilized anti-CD3/soluble anti-CD28 for 3–4 days. Cytokines were quantified in the media from T cell co-culture assays using the Cytometric Bead Array kit according to the manufacturer’s instructions (BD Biosciences).

The next data set addresses T1, Recombinant human Arg2 (Homo sapiens, UniProt P78540).
T1 construct: Recombinant human arginase 2 (Arg2) comprising amino acids 23–254 was purchased from US Biological; purchased US Biological (Salem, MA)
T1 sequence (P78540 23-354): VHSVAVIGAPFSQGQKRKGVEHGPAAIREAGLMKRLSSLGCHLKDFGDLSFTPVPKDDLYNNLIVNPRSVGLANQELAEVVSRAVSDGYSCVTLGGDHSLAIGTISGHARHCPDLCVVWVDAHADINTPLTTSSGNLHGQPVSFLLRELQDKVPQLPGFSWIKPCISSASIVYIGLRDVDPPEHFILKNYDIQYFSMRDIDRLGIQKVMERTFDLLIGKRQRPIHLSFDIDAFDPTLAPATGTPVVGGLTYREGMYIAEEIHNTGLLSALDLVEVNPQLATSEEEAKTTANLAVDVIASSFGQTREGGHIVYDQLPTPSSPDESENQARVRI
Put plainly: Recombinant arginase activity assay (Arg2). It counts as biochemical. The note with it: 20 mM L-arginine; N = 2; mean (±SD).

Data set [3] deals with intracellular arginase in K562 cell line. Nature of the data set: Native arginase activity in intact K-562 cells. The note with it: 10 mM L-arginine; urea in media after 24 h; N = 2; mean (±SD). It counts as cell-based, human.
Procedure: (§2) Intracellular arginase activity was determined for the arginase-expressing HepG2 and K-562 cell lines as follows. […] The medium was harvested after 24 h and urea generated was determined with the QuantiChrom Urea Assay Kit. Wells containing media without cells were used as background controls.
The subject of data set [4] is LLC tumors. Nature of the data set: LLC tumors in conditional Arg1 deleted mice. It counts as in vivo, mouse. The note with it: 100 mg/kg every 12 h for 14 days, oral. The method, then:
Arg1 floxed mice were crossed to the Tie2-Cre deleter strain (The Jackson Laboratory) as previously described. Experimental mice were generated from crossing Arg1 ^Flox/Flox; Tie2-Cre ^+ males with Arg1 ^Flox/Flox; Tie2-Cre ^− females, with Cre negative littermates serving as wild-type controls. […] LLC cells (10^6 per mouse) were injected s.c. in the flank region. […] Mice were euthanized, and tumors excised and weights recorded. Myeloid deletion of Arg1 was confirmed via western blotting of IL-4-stimulated bone marrow-derived macrophages for all animals.

In data set [5] the test system is intracellular arginase in HepG2 cell line. Nature of the data set: Native arginase activity in intact HepG2 cells. The format is cell-based, human. The note with it: 10 mM L-arginine; urea in media after 24 h; N = 3; mean (±SD).
Procedure: as §2
For data set [6], the system named is granulocytic MDSCs from a lung cancer patient / healthy donor T cells. Nature of the data set: T cell proliferation in G-MDSC-conditioned media (lung cancer patient). The format is cell-based, human. The method, then: as §1, with “Freshly isolated G-MDSC or granulocytes were incubated in co-culture medium containing 100 μM L-arginine for 48 h, at which time the cells were removed and the G-MDSC- or granulocyte-conditioned media were used for incubating healthy donor CFSE-loaded T cells on immobilized anti-CD3/soluble anti-CD28 for 3–4 days.” left out

For data set [7], the system named is LLC tumors. Nature of the data set: LLC tumors in SCID mice. The note with it: 100 mg/kg twice daily. It counts as in vivo, mouse.
For a further data set, the system named is B16 tumors. Nature of the data set: B16 syngeneic tumor model. It counts as in vivo, mouse.
Data set [8] has as its system human granulocytes co-cultured with autologous T cells. Nature of the data set: T cell/granulocyte co-culture assay (healthy donor). It counts as cell-based. The note with it: for IC50: Homo sapiens, T-cell, granulocytes to T cells 0.25 to 1. As for the experimental part:
T cells or NK cells were purified from healthy donor human blood or from murine splenocytes using a negative selection kit for the appropriate cell type and species from Stemcell Technologies. Isolated T cells or NK cells were loaded with carboxyfluorescein succinimidyl ester (CFSE, Thermo Fisher) and stimulated for 72–96 h in complete growth medium containing a minimum of either 50 μM L-arginine (NK cells) or 100 μM L-arginine (T cells). For T cell stimulation, a solution of 10 μg/mL anti-CD3 (human clones UCHT1 or OKT3; murine clone 145-2C11) was used to coat the wells of a 96-well plate and then T cells were stimulated on immobilized anti-CD3 in the presence of 2 μg/mL soluble anti-CD28 (human clone CD28.2; murine clone 37.51). NK cells were stimulated with recombinant IL-2. Proliferation was quantified by analyzing CFSE dilution by flow cytometry (Guava flow cytometer, Millipore, Billerica, MA or Attune NxT flow cytometer, ThermoFisher).
as §1, with “Co-cultures were incubated for 3–4 days, at which time the medium was analyzed for L-arginine and L-ornithine by mass spectrometry and T cell proliferation was determined by flow cytometry.” left out, “Granulocytes and G-MDSCs were characterized by flow cytometry for CD66b expression. Freshly isolated G-MDSC or granulocytes were incubated in co-culture medium containing 100 μM L-arginine for 48 h, at which time the cells were removed and the G-MDSC- or granulocyte-conditioned media were used for incubating healthy donor CFSE-loaded T cells on immobilized anti-CD3/soluble anti-CD28 for 3–4 days.” left out

Data set [9] is described as follows: Pharmacokinetic and pharmacodynamic study in LLC tumor-bearing mice. The note with it: oral dosing, pharmacodynamic effect. It counts as in vivo, mouse.
The next data set has as its system tumor growth. More on the design: method as in PMID 15313928. The note with it: cited from earlier work.
Details of data set [10]: method as in PMID 20219858. The note with it: nor-NOHA injected over a period of 10 weeks; cited from earlier work.
[11] abbreviates: flow cytometry, study day 14, 100 mg/kg BID.
Where [12] appears, read: flow cytometry, study day 10, 100 mg/kg BID.
The mark [13] stands for this setting: 100 mg/kg twice daily, depleting antibodies.
Setting [14] is: 100 mg/kg twice daily for 23 days, CT26-inoculated mice.

Procedure for CT26 tumors: Female wild-type C57BL/6 and Balb/c mice (5–6 weeks old) were purchased from Charles River Laboratories (Hollister, CA). Severe combined immune deficient (SCID, B6.CB17-PrkdcSCID/SzJ) and Pmel-1 TCR transgenic (B6.Cg-Thy1a/Cy Tg(TcraTcrb)8Rest/J) mice (5–6 weeks old) were purchased from The Jackson Laboratory (Bar Harbor, ME). All mice were housed and treated in accordance with Institutional Animal Care and Use Committee guidelines. For the 4T1 tumor model, 10^5 cells were injected orthotopically into the mammary fat pad; for all other tumor models, 10^6 cells were injected subcutaneously (s.c.) in the right flank. […] Control groups received vehicle (water) twice daily by gavage. Tumor volume measured by digital caliper (length × width × width/2) and body weight were recorded three times per week. Animals were euthanized when tumors necrotized or volumes reached 2000 mm^3. For the CT26 model, anti-PD-L1 antibody (5 mg/kg, clone 10F.9G2, BioXCell, West Lebanon, NH) was injected intraperitoneally (i.p.) on days 5, 7, 9, 11, 13, and 15. […] Gemcitabine (Selleckchem, Houston, TX) was dosed 50 mg/kg i.p. on days 10 and 16 for the CT26 model, 60 mg/kg i.p. on days 6 and 10 for the LLC model, or 30 mg/kg i.p. on day 5 for the 4T1 model [17, 18]. […] For CD8^+ cell depletion, mice were injected i.p. with anti-CD8 antibody (25 mg/kg, clone 2.43, BioXCell) on days −1, 0, + 5, and +10. For NK cell depletion, mice were injected i.p. with anti-NK1.1 antibody (25 mg/kg, clone PK136, BioXCell) in the LLC and B16 models or with anti-Asialo GM1 sera (20 μL, Wako Chemicals, Richmond, VA) in the CT26 model, per the same schedule as anti-CD8.
Excised tumors were placed on ice in RPMI-1640 medium containing 5% FBS, minced with a razor blade, and dissociated in RPMI-1640 supplemented with mouse tumor dissociation enzymes (Miltenyi Biotec, Bergisch Gladbach, Germany) on a GentleMACS Octo Dissociator With Heat (Miltenyi Biotec) according to the manufacturer’s instructions. Dissociated tumors were strained through 70 μm nylon mesh, washed with cold PBS containing 2% FBS, blocked with anti-CD16/CD32 (Fc block antibody, eBioscience), and stained for cell surface antigens. For B16 and 4T1 tumors, washed dissociated tumor cells were incubated with Dead Cell Removal MicroBeads (Miltenyi Biotec) and applied to a magnetic column prior to staining. For intracellular staining, cells were fixed and permeabilized using buffers purchased from R&D Systems or eBioscience for cytoplasmic or nuclear antigens, respectively. All tumor flow experiments were acquired on an Attune NxT flow cytometer and analyzed with FlowJo software version 10 (Ashland, OR), using fluorescence-minus-one controls for gating and single-stained OneComp eBeads (eBioscience) to set compensation matrices.
Procedure for Recombinant human Arg2: Recombinant human arginase 2 (Arg2) comprising amino acids 23–254 was purchased from US Biological (Salem, MA). […] Activity was determined by a spectrophotometric assay using the QuantiChrom Urea Assay Kit (BioAssay Systems, Hayward, CA) or by quantification of the generation of ^13C(5)-L-ornithine from ^13C(6)-L-arginine using a SCIEX API4000 mass spectrometer (Applied Biosystems, Foster City, CA). Urea produced or ^13C(5)-L-ornithine peak areas were plotted and fitted to a four-parameter equation using GraphPad Prism software (San Diego, CA) to determine IC50 values.

As to `Nc1ccn([C@@H]2O[C@H](CO)[C@@H](O)C2(F)F)c(=O)n1` [Gemcitabine, gemcitabine, reference compound], the “CD11b+ myeloid cells in the tumors” value in the data set on CT26 tumors (flow cytometry, study day 14) is “significant decrease”.
In the case of `C[C@H](N)C(=O)N1C[C@H](CCCB(O)O)[C@](N)(C(=O)O)C1` [CB-1158], the “tumor growth, single agent” value in the data set on LLC tumors [1] (100 mg/kg twice daily, oral) is “significantly inhibited”; with 4T1 tumors (100 mg/kg twice daily, oral), “significantly inhibited; also recorded: modest effect”; in the data set on CT26 tumors (100 mg/kg twice daily, oral), “significantly inhibited”; with B16 tumors (100 mg/kg twice daily, oral) it was “significantly inhibited”. For the same compound, the “effect of depletion of CD8+ cells on efficacy” value in the data set with LLC tumors [1] (100 mg/kg twice daily, study day 13) is “smaller effect”. The “efficacy after depletion of NK cells” value in the data set on LLC tumors [1] (100 mg/kg twice daily, study day 14) was “loss of efficacy”. Also, the “inflammatory cytokines in tumors vs vehicle” value in the data set on LLC tumors [1] (Luminex, 200 mg/kg twice daily for 14 days) is “increases”. Moreover, the “transcripts of interferon-responsive genes in tumors vs vehicle” value with LLC tumors [1] (Nanostring, 100 mg/kg twice daily for 13 days) is “increases”. The “CD8+ T cells in the tumor vs vehicle” value with LLC tumors [1] (setting [11]) is listed as “increase”. Moreover, in the data set on LLC tumors [1] (setting [11]), the “CD68+ macrophages in the tumor vs vehicle” value is recorded as “decrease”. Further, in the data set with 4T1 tumors (setting [12]), the “CD3+ T cells in the tumor vs vehicle” value is listed as “increase”. Besides, in the data set with 4T1 tumors (setting [12]), the “NK cells in the tumor vs vehicle” value is given as “increase”. In the data set with 4T1 tumors (setting [12]), the “myeloid cells in the tumor vs vehicle” value is “decrease”. The “arginine depletion from the media” value in data set [2] (granulocyte-conditioned media) and in data set [6] was “blocked” throughout. The “T cell proliferation restored, of control levels” value in [2] (granulocyte-conditioned media, granulocytes to T cells 0.5 to 1) is reported as 79%; in data set [6] (MDSCs to T cells 1 to 1), 99%. Moreover, in [2] (media from Fig. 1f, Cytometric Bead Array), the “secretion of interferon-γ and granzyme-B into the media” value was “restored”. Further, the IC50 was 296 nM on Recombinant human Arg2; 139000 nM in data set [3]; 32000 nM in [5]; 411 nM in [8] (Fig. 1d left, read-out: IC50, consumption of L-arginine from the media by granulocytes); 204 nM in data set [8] (Fig. 1d right, read-out: IC50, granulocyte-mediated suppression of T cell proliferation). Besides, the “tumor growth in Arg flox/flox; Tie2-Cre+ (ARG1ΔM) mice” value with LLC tumors [4] is “no further reduction in tumor growth”. Further, the “efficacy after depletion of either CD8+ cells or NK cells” value with CT26 tumors (setting [13]) and with B16 tumors (setting [13]) was “blocked the efficacy” in each case. Also, the “tumor-infiltrating activated CD8+ CD25+ cytotoxic T cells vs vehicle” value is “increase” in the data set on CT26 tumors (setting [11]) and “increase” in the data set on B16 tumors (flow cytometry, study day 9, 100 mg/kg BID). In addition, the “efficacy in the SCID background” value in the data set with LLC tumors [7] is “abrogated”. Besides, the “T cell proliferation restored, of the proliferation observed for T cells without granulocytes” value in [8] (co-culture with activated granulocytes) was determined as 90%. Further, the “clinical observations and body weight” value in the data set “Tolerability in mice” (setting [14]) is listed as “no significant clinical observations or impact on body weight”. Further, the tolerability entry in “Tolerability in mice” (setting [14]) and in the data set “Tolerability in mice” (twice-daily oral dosing for at least 40 days) was “well-tolerated” in each case. For the same compound, in data set [9], the “amount of L-arginine in plasma and tumors” value is “raised”.
Take `N=C(NO)NCC[C@H](N)C(=O)O` [nor-NOHA]: the tumor growth result in the data set with tumor growth (injection of nor-NOHA) is listed as “reduced tumor growth”. Further, the tolerability entry (with tumor growth (multi-day studies in mice); in data set [10]) was “well-tolerated” throughout.
